Where two headings read alike, the source gives them in different places.
Columns and labels:
[1] = tested on: monoclonal antibody 245J15; assay: Competitive ELISA for total TSNAs using monoclonal antibody 245J15; type: binding, mice
Procedure: (§1) Microtiter plates (Nunc, Maxisorp) were coated by adding 100 μl per well of goat anti mouse IgG Fc specific (Jackson Immunoresearch, West Grove, Pa.) at 2.5 micrograms per milliliter (μg/ml) in phosphate buffered saline (Sigma Chemical Co.) and allowing the solution to sit overnight. The next day, contents were discarded and unreacted sites on the plastic wells were blocked with 300 μl per well of PBT (1% Bovine Serum Albumen (Sigma Chemical Co.), 0.05% Tween 20 (Sigma Chemical Co.) in PBS) for one hour. Contents were again discarded and 100 μl was added per well of a 1/10,000 dilution of hybridoma culture supernatant of monoclonal antibody 245B5. Wells were then incubated one hour at room temperature. Contents of the wells were again discarded and wells washed three times with PBS with 0.05% Tween (PT). Aliquots containing 50 μl of test compounds diluted in PBT were added to the wells in duplicate, followed in less than five minutes by 50 μl of NNK conjugated to horseradish peroxidase (5 μg of horseradish peroxidase/ml). Wells were incubated for one hour at room temperature, after which they were washed six times with PT and excess liquid removed by tapping. A 100 μl aliquot of a peroxide/3,3′,5,5′-tetramethylbenzidine substrate/chromagen (Catalog # TMBUS, Moss Corporation, Pasadena, Md.) was added. Color was read at 650 nm after fifteen minutes in a microplate reader (SpectraMax Plus, Molecular Devices, Sunnyvale, Calif.). The presence of a TSNA reactive with monoclonal antibody 245B5 caused a decrease in the strength of the color signal.
A total TSNA assay was developed for monoclonal antibody 245J15.
Each analyte was obtained from the source identified in Example 3.
(§2) The affinity of monoclonal antibodies 245B5 and 245J15 to the N-nitroso group on compounds was evaluated using the immunoassay of Example 3 and the immunoassay of Example 4. Parent compounds lacking nitroso groups but having secondary amine groups were run in the immunoassays as previously described. Identical immunoassays were also conducted for compounds that were identical with the parent compounds except that for the addition of the nitroso group to the secondary amine in the compounds. NNN, NAT, and NAB are all examples of TSNAs. N-nitrosopyrollidine may be found in tobacco smoke, but is not a TSNA.

[2] = tested on: monoclonal antibody 245B5; assay: Competitive ELISA for NNK using monoclonal antibody 245B5; type: binding, mice; settings: for % Crossreactivity: NNK amount for 50% inhibition divided by test compound amount, x100
Procedure: as §1
TSNAs were purchased from Toronto Research Chemicals. […] The y-axis is B/Bo, which is the amount of color at 650 nm obtained in the presence of the compound divided by the amount of color obtained when no competing compound is present.
as §2

[3] = tested on: rabbit antisera raised against NNK oxime derivative conjugates; type: binding, New Zealand White Rabbits; settings: one rabbit; for Crossreactivity at the 50% point: relative to NNK
Procedure: NNK oxime derivatives were prepared and conjugated to KLH and BSA as described in Example 1. The conjugates were diluted in complete Freund's adjuvant to prepare a 1:1 solution of conjugate:adjuvant. New Zealand White Rabbits (6 to 12 months of age) were immunized by injection with the suspension. Rabbits received two booster injections of the same conjugate/adjuvant at one month and two months after initial injection. At three months time, point test bleeds were tested against microtiter plates coated with oxime-derivatized NNK prepared and conjugated to ovalbumen using procedures described in Example 1.
All of these rabbits were used individually to produce competitive assays, as described in Example 3, with the exceptions that a 1:250,000 dilution of antisera in PBT was substituted for the supernatant and the microtiter plates were first coated with goat anti rabbit IgG (Catalog # 115-005-008, Jackson Immunoresearch, West Grove, Pa.) rather than goat anti mouse IgG. All other details were the same.

[4] = Antibody 245J15, NNK amount for 50% inhibition divided by test compound amount, x100
[5] = Antibody 245J15, read-out: 50% Inhibition at: M
[6] = 0.5 B/Bo, read-out: 50% Inhibition at: M
[7] = Table 3, parent compound vs N-nitroso derivative, read-out: 50% Inhibition at
[8] = Table 4, Antibody 245J15, parent compound vs N-nitroso derivative, read-out: 50% Inhibition at

| Compound | 50% Inhibition at: ppm ([1]; Antibody 245J15) | % Crossreactivity [1, 4] | IC50 [1, 5] | 50% Inhibition at: Ppm ([2]; 0.5 B/Bo) | IC50 [2, 6] | IC50 [2, 7] | IC50 [1, 8] | further results |
| --- | --- | --- | --- | --- | --- | --- | --- | --- |
| O=C(O)C1CCCCN1 (racemic) [DL-Pipecolinic Acid] | 13630.2 ppm | 0% |  |  |  |  |  |  |
| CN1CCCCC1CO (centres unmarked) [1-Methyl-2-piperidinemethanol] | 781.4 ppm | 0.008% | 6000 µM |  |  |  |  |  |
| CN1CCCC1CCO (centres unmarked) [1-Methyl-2-pyrrolidineethanol] | 1264.4 ppm | 0.005% | 9800 µM |  |  |  |  |  |
| CN1CCC(O)C1 (centres unmarked) [1-Methyl-3-pyrrolidinol] | 92.7 ppm | 0.065% | 920 µM |  |  |  |  |  |
| O=C1CCCN1 [2-Pyrrolidinone] | 2594 ppm | 0.002% | 30000 µM |  |  |  |  |  |
| Cl.OC1CCCNC1 (centres unmarked) [3-Hydroxypiperidine hydrochloride] | 17492.7 ppm | 0% |  |  |  |  |  |  |
| OC1CCNC1 (centres unmarked) [3-Pyrrolidinol] | 5373.9 ppm | 0.001% | 62000 µM |  |  |  |  |  |
| Cl.OC1CCNCC1 [4-Hydroxypiperidine hydrochloride] | 12282.5 ppm | 0% | 89000 µM |  |  |  |  |  |
| OC[C@H]1CCCN1 [(R)-(−)-2-Pyrrolidine-methanol] | 1898.1 ppm | 0.003% | 19000 µM |  |  |  |  |  |
| OC[C@@H]1CCCN1 [(S)-(+)-2-Pyrrolidine-methanol] | 996.7 ppm | 0.006% | 9900 µM |  |  |  |  |  |
| c1cncc([C@@H]2CCCCN2)c1 [Anabasine] | 214.9 ppm | 0.028% | 1300 µM | >200 Ppm | > 1000 µM | > 1000 µM | 1300 µM | % Crossreactivity [2]: <0.0002% |
| C1=CCC(c2cccnc2)NC1 (centres unmarked) [Anatabine] | 8.3 ppm | 0.7% | 52 µM | 311.06 Ppm | 1900 µM | 1900 µM | 52 µM | % Crossreactivity [2]: 0.0004% |
| CCCCNCCCC [Dibutylamine] |  |  |  |  |  | > 50000 µM | > 50000 µM |  |
| CN1CCCC[C@H]1c1cccnc1 [Methyl Anabasine] | 30.2 ppm | 0.2% | 180 µM | 271.90 Ppm | 1600 µM |  |  | % Crossreactivity [2]: 0.0005% |
| CCCCN(CCCC)N=O [N-Nitrosodibutylamine] |  |  |  |  |  | 16000 µM | 10000 µM |  |
| O=NN1CCCC1 [N-Nitrosopyrrolidine] |  |  |  |  |  | 3000 µM | 5000 µM |  |
| O=NN1CCCC[C@H]1c1cccnc1 [NAB, N-nitrosoanabasine] | 0.72 ppm | 8.3% | 3.8 µM | 1.35 Ppm | 7.1 µM | 7.1 µM | 3.8 µM | Crossreactivity at the 50% point [3]: 1.6% |
| O=NN1CC=CC[C@H]1c1cccnc1 [NAT, N-nitrosoanatabine] | 0.13 ppm | 46.3% | 0.68 µM | 0.35 Ppm | 1.8 µM | 1.8 µM | 0.68 µM | Crossreactivity at the 50% point [3]: 1.7% |
| CN(N=O)C(CCC=O)c1cccnc1 (centres unmarked) [NNA, 4-(methylnitrosamino)4-(3-pyridyl)butanal] | 0.56 ppm | 10.8% | 2.7 µM | 18.00 Ppm | 87 µM |  |  | % Crossreactivity [2]: 0.0075% |
| CN(CCCC(O)c1cccnc1)N=O (centres unmarked) [NNAL, 4-(methylnitrosamino)-1-(3-pyridyl)-1-butanol] | 0.05 ppm | 129.6% | 0.22 µM | 0.06923 Ppm | 0.33 µM |  |  |  |
| CN(CCCC(=O)c1cccnc1)N=O [NNK, 4-(methylnitrosamino)-1-(3-pyridyl)-1-butanone] | 0.06 ppm | 100% | 0.29 µM | 0.00135 Ppm | 0.0065 µM |  |  | % Crossreactivity [2]: 100.00%; sensitivity at the 50% inhibition point ([3]; 1:250,000 dilution of antisera): 0.1 μg NNK per ml |
| CN1CCCC1c1cccnc1 (centres unmarked) [Nicotine] | 80.9 ppm | 0.074% | 500 µM | 16.88 Ppm | 100 µM |  |  | % Crossreactivity ([1]; Antibody 245J15, NNK amount for 50% inhibition divided by test compound amount, x100, listed as Nicotine (Acros)): 0.034%; 50% Inhibition at: ppm ([1]; Antibody 245J15, listed as Nicotine (Acros)): 178.9 ppm; IC50 ([1]; Antibody 245J15, listed as Nicotine (Acros), read-out: 50% Inhibition at: M): 1100 µM; Crossreactivity at the 50% point [3]: 0.024% |
| O=C(O)C1CCCNC1 (centres unmarked) [Nipecotic Acid] | 24193.5 ppm |  |  |  |  |  |  |  |
| c1cncc([C@@H]2CCCN2)c1 [Nornicotine] | 223.1 ppm | 0.027% | 1500 µM | >200 Ppm | > 1000 µM | > 1000 µM | 1500 µM | % Crossreactivity [2]: <0.0002% |
| C1CCNCC1 [Piperidine] | 1300.3 ppm | 0.005% | 15000 µM |  |  |  |  |  |
| c1ccncc1 [Pyridine] |  |  |  |  |  |  |  | 50% Inhibition at: ppm [1]: 946.9 ppm; % Crossreactivity [1]: 0.006%; IC50 ([1]; read-out: 50% Inhibition at: M): 12000 µM |
| C1CCNC1 [Pyrrolidine] |  |  |  |  |  | 20000 µM | 20000 µM |  |
